Earlier results, collected in patent publication US20230404885A1, “EPIDERMAL STEM CELL PROLIFERATION-PROMOTING AGENT” (Shiseido Company, Ltd., priority 2020, published 2023).

Tests used:
MMP-2 = target: T1, MMP-2 (Homo sapiens, UniProt P08253); conditions: known
T1 sequence (P08253 110-660): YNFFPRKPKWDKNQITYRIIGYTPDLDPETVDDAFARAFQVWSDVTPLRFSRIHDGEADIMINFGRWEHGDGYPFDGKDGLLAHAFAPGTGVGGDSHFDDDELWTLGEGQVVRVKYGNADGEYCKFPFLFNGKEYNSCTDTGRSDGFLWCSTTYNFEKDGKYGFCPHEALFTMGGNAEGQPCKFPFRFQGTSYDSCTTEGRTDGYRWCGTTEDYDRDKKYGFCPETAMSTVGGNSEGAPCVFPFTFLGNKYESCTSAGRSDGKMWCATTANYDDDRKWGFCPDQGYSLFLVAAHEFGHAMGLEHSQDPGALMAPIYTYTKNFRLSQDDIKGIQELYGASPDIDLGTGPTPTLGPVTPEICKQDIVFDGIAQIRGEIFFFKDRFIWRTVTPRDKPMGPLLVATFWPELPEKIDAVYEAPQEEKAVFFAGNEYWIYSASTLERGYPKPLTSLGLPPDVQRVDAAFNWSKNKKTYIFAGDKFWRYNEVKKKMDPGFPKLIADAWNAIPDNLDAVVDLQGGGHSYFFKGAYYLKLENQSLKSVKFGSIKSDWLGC

MMP-1 = target: T2, MMP-1 (Homo sapiens, UniProt P03956); conditions: known
T2 sequence (P03956 100-469): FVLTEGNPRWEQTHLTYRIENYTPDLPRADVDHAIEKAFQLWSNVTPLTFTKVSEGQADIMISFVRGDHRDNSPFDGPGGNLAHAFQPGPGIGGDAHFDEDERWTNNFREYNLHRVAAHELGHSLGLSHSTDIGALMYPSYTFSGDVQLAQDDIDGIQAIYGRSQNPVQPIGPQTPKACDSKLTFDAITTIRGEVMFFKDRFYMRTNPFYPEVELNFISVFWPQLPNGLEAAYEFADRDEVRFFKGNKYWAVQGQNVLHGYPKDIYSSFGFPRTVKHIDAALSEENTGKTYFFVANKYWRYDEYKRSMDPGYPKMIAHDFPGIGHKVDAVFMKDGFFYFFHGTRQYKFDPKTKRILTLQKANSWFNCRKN

heparanase = target: T3, heparanase (Homo sapiens, UniProt Q9Y251); conditions: known, see JP 2014-111640
T3 sequence (Q9Y251 36-543): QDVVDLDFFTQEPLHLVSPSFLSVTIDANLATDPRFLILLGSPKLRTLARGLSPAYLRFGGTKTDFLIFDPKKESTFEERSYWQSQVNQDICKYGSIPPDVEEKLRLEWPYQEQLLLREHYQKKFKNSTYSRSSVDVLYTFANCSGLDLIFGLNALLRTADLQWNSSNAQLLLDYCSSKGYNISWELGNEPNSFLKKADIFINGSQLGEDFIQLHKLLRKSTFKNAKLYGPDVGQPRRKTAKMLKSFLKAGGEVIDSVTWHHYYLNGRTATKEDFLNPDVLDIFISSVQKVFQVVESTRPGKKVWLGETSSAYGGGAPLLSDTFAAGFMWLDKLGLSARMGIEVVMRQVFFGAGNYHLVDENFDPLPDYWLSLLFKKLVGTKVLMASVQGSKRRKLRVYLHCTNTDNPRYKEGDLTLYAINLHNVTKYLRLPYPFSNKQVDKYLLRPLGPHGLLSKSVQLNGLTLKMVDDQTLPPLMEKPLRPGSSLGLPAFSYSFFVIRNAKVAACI

MMP-9 = MMP-9 (Homo sapiens, UniProt P14780); conditions: known
Chain of MMP-9 (P14780 94-707): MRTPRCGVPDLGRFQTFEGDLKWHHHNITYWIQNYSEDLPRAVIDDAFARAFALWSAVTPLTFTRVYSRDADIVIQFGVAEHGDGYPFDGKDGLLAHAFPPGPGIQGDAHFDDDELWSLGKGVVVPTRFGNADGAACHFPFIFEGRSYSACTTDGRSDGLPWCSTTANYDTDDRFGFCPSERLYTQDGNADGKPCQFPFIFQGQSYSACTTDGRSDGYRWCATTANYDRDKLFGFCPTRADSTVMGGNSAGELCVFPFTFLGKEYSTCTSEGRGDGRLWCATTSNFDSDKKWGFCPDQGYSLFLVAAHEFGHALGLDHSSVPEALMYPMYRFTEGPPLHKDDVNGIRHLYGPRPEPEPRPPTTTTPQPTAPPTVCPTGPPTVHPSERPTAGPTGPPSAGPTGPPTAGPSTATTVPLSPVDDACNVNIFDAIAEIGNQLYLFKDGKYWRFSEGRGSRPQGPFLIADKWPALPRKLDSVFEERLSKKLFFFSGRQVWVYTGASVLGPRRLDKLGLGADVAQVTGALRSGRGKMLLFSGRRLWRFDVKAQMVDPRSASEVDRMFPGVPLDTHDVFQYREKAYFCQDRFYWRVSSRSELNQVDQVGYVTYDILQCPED

## O=C1NCCN1CCO [S173, 1-(2-hydroxyethyl)-2-imidazolidinone]
MMP-2
  effect on activity of MMP-2: does not affect
MMP-1
  effect on activity of MMP-1: does not affect
heparanase
  heparanase activity inhibition: inhibitors of the heparanase activity
MMP-9
  MMP-9 inhibition: inhibits
